# According to patent US10406169B2, “Methods of monitoring estriol therapy” (The Regents of the University of California, priority 2015, dated 2019):
# Test: Safety and adverse events
# Type: in vivo, human
# Excerpt: On study blood tests included complete blood count (CBC) with differential and platelets; chemistry panel including sodium, potassium, creatinine, BUN, glucose, total protein, albumin, bilirubin (total), alkaline phosphatase, AST (SGOT), and ALT (SGPT), and lipid profile (HDL, LDL and triglycerides, cholesterol. […] Adverse event analysis was based on the percentage of patients who discontinued the study and the percentage of patients who discontinued the study possibly due to adverse events.
substance,measurement,setting,value
glatiramer acetate [Placebo + GA],Fibrocystic disease on clinical exam - %,Breast,(5) %
same,Fibrocystic disease on clinical exam - no.,Breast,4
same,Mammogram with malignancy - no.,Breast,0
same,"Breast adverse events, # of patients",Completed,[5]
same,"Breast adverse events, number of events",Completed,5
same,"Cardiovascular adverse events, # of patients",Completed,[8]
same,"Cardiovascular adverse events, number of events",Completed,8
same,"Extremity adverse events, # of patients",Completed,[21]
same,"Extremity adverse events, number of events",Completed,43
same,"GA related? adverse events, # of patients",Completed,[11]
same,"GA related? adverse events, number of events",Completed,22
same,"GI adverse events, # of patients",Completed,[15]
same,"GI adverse events, number of events",Completed,19
same,"GU adverse events, # of patients",Completed,[10]
same,"GU adverse events, number of events",Completed,17
same,"GYN adverse events, # of patients",Completed,[15]
same,"GYN adverse events, number of events",Completed,18
same,"General adverse events, # of patients",Completed,[26]
same,"General adverse events, number of events",Completed,48
same,"Head/Neck adverse events, # of patients",Completed,[26]
same,"Head/Neck adverse events, number of events",Completed,42
same,"Lymph adverse events, # of patients",Completed,[1]
same,"Lymph adverse events, number of events",Completed,1
same,"MRI related adverse events, # of patients",Completed,[2]
same,"MRI related adverse events, number of events",Completed,3
same,"Menses adverse events, # of patients",Completed,[10]
same,"Menses adverse events, number of events",Completed,14
same,"Mental adverse events, # of patients",Completed,[10]
same,"Mental adverse events, number of events",Completed,14
same,"Neurology adverse events, # of patients",Completed,[9]
same,"Neurology adverse events, number of events",Completed,13
same,"Respiratory adverse events, # of patients",Completed,[26]
same,"Respiratory adverse events, number of events",Completed,47
same,"Skeleton adverse events, # of patients",Completed,[1]
same,"Skeleton adverse events, number of events",Completed,2
same,"Skin adverse events, # of patients",Completed,[10]
same,"Skin adverse events, number of events",Completed,15
same,"Total adverse events, # of patients",Completed,[53]
same,"Total adverse events, number of events",Completed,331
same,"Cancer adverse events, # of patients",Discontinued,[1]
same,"Cancer adverse events, number of events",Discontinued,1
same,"Extremity adverse events, # of patients",Discontinued,[2]
same,"Extremity adverse events, number of events",Discontinued,4
same,"GA related? adverse events, # of patients",Discontinued,[4]
same,"GA related? adverse events, number of events",Discontinued,10
same,"GI adverse events, # of patients",Discontinued,[3]
same,"GI adverse events, number of events",Discontinued,3
same,"GU adverse events, # of patients",Discontinued,[3]
same,"GU adverse events, number of events",Discontinued,3
same,"GYN adverse events, # of patients",Discontinued,[3]
same,"GYN adverse events, number of events",Discontinued,3
same,"General adverse events, # of patients",Discontinued,[6]
same,"General adverse events, number of events",Discontinued,9
same,"Head/Neck adverse events, # of patients",Discontinued,[4]
same,"Head/Neck adverse events, number of events",Discontinued,9
same,"Lymph adverse events, # of patients",Discontinued,[1]
same,"Lymph adverse events, number of events",Discontinued,1
same,"Menses adverse events, # of patients",Discontinued,[2]
same,"Menses adverse events, number of events",Discontinued,3
same,"Mental adverse events, # of patients",Discontinued,[5]
same,"Mental adverse events, number of events",Discontinued,5
same,"Neurology adverse events, # of patients",Discontinued,[1]
same,"Neurology adverse events, number of events",Discontinued,1
same,"Respiratory adverse events, # of patients",Discontinued,[3]
same,"Respiratory adverse events, number of events",Discontinued,7
same,"Skin adverse events, # of patients",Discontinued,[2]
same,"Skin adverse events, number of events",Discontinued,2
same,"Total adverse events, # of patients",Discontinued,[13]
same,"Total adverse events, number of events",Discontinued,61
same,Abnormal proliferation on biopsy - no.,Uterus,0
same,Endometrial biopsies performed - %,Uterus,(8) %
same,Endometrial biopsies performed - no.,Uterus,6
same,Endometrial thickness >8 mm (ultrasound) - %,Uterus,(36) %
same,Endometrial thickness >8 mm (ultrasound) - no.,Uterus,27
same,Fibroids (ultrasound) - %,Uterus,(11) %
same,Fibroids (ultrasound) - no.,Uterus,8
same,Adverse events leading to discontinuation - %,in vivo,(6%)
same,Adverse events leading to discontinuation - no.,in vivo,5
same,Any adverse event - % of pts,in vivo,87%
same,Any adverse event - no of pts,in vivo,67
same,Any adverse event - no. of events,in vivo,392
same,"Arm/leg numbness, tingling - % of pts",in vivo,9%
same,"Arm/leg numbness, tingling - no of pts",in vivo,7
same,"Arm/leg numbness, tingling - no. of events",in vivo,10
same,Back pain - % of pts,in vivo,6%
same,Back pain - no of pts,in vivo,5
same,Back pain - no. of events,in vivo,5
same,Copaxone injection area abnormalities - % of pts,in vivo,18%
same,Copaxone injection area abnormalities - no of pts,in vivo,14
same,Copaxone injection area abnormalities - no. of events,in vivo,30
same,Depression/anxiety - % of pts,in vivo,12%
same,Depression/anxiety - no of pts,in vivo,9
same,Depression/anxiety - no. of events,in vivo,10
same,Dizziness - % of pts,in vivo,9%
same,Dizziness - no of pts,in vivo,7
same,Dizziness - no. of events,in vivo,10
same,Fatigue - % of pts,in vivo,10%
same,Fatigue - no of pts,in vivo,8
same,Fatigue - no. of events,in vivo,10
same,Gastroenteritis - % of pts,in vivo,4%
same,Gastroenteritis - no of pts,in vivo,3
same,Gastroenteritis - no. of events,in vivo,4
same,Headache - % of pts,in vivo,14%
same,Headache - no of pts,in vivo,11
same,Headache - no. of events,in vivo,12
same,Heart palpitation - % of pts,in vivo,5%
same,Heart palpitation - no of pts,in vivo,4
same,Heart palpitation - no. of events,in vivo,4
same,Insomnia - % of pts,in vivo,5%
same,Insomnia - no of pts,in vivo,4
same,Insomnia - no. of events,in vivo,4
same,Irregular menses/spotting - % of pts,in vivo,4%
same,Irregular menses/spotting - no of pts,in vivo,3
same,Irregular menses/spotting - no. of events,in vivo,4
same,Menstrual cramp - % of pts,in vivo,5%
same,Menstrual cramp - no of pts,in vivo,4
same,Menstrual cramp - no. of events,in vivo,5
same,Menstrual flow amount increased - % of pts,in vivo,8%
same,Menstrual flow amount increased - no of pts,in vivo,6
same,Menstrual flow amount increased - no. of events,in vivo,8
same,Nausea/vomiting - % of pts,in vivo,6%
same,Nausea/vomiting - no of pts,in vivo,5
same,Nausea/vomiting - no. of events,in vivo,5
same,Severe adverse events - % of pts,in vivo,13%
same,Severe adverse events - no of pts,in vivo,10
same,Severe adverse events - no. of events,in vivo,12
same,Shingles - % of pts,in vivo,5%
same,Shingles - no of pts,in vivo,4
same,Shingles - no. of events,in vivo,4
same,Sinusitis - % of pts,in vivo,13%
same,Sinusitis - no of pts,in vivo,10
same,Sinusitis - no. of events,in vivo,14
same,Upper respiratory infection - % of pts,in vivo,34%
same,Upper respiratory infection - no of pts,in vivo,26
same,Upper respiratory infection - no. of events,in vivo,38
same,Urinary tract infection - % of pts,in vivo,13%
same,Urinary tract infection - no of pts,in vivo,10
same,Urinary tract infection - no. of events,in vivo,16
same,Vaginal infection - % of pts,in vivo,10%
same,Vaginal infection - no of pts,in vivo,8
same,Vaginal infection - no. of events,in vivo,9
same,"Vision problem (blurry, double) - % of pts",in vivo,9%
same,"Vision problem (blurry, double) - no of pts",in vivo,7
same,"Vision problem (blurry, double) - no. of events",in vivo,7
same,Accidently took other's drug - % of pts,severe adverse event,"[1, 1%]"
same,Accidently took other's drug - no of pts,severe adverse event,"[1, 1%]"
same,Accidently took other's drug - no. of events,severe adverse event,1
same,Acute appendicitis - % of pts,severe adverse event,"[1, 1%]"
same,Acute appendicitis - no of pts,severe adverse event,"[1, 1%]"
same,Acute appendicitis - no. of events,severe adverse event,1
same,B-cell lymphoma - % of pts,severe adverse event,"[1, 1%]"
same,B-cell lymphoma - no of pts,severe adverse event,"[1, 1%]"
same,B-cell lymphoma - no. of events,severe adverse event,1
same,Car accident related body numbness - % of pts,severe adverse event,"[1, 1%]"
same,Car accident related body numbness - no of pts,severe adverse event,"[1, 1%]"
same,Car accident related body numbness - no. of events,severe adverse event,1
same,Heart failure - no. of events,severe adverse event,0
same,MS relapse - % of pts,severe adverse event,6%
same,MS relapse - no of pts,severe adverse event,5
same,MS relapse - no. of events,severe adverse event,6
same,Migraine headache related eye pain - no. of events,severe adverse event,0
same,Pace maker implantation - no. of events,severe adverse event,0
same,Pregnancy termination - no. of events,severe adverse event,0
same,Pyelonephritis - no. of events,severe adverse event,0
same,Right knee replacement - % of pts,severe adverse event,"[1, 1%]"
same,Right knee replacement - no of pts,severe adverse event,"[1, 1%]"
same,Right knee replacement - no. of events,severe adverse event,1
same,Systolic heart failure - no. of events,severe adverse event,0
same,UTI - % of pts,severe adverse event,"[1, 1%]"
same,UTI - no of pts,severe adverse event,"[1, 1%]"
same,UTI - no. of events,severe adverse event,1
